Assay results published in patent US9179674B2, “Macrocyclic picolinamide compounds with fungicidal activity” (DOW AGROSCIENCES LLC, priority 2013, dated 2015).
Where two headings read alike, the source gives them in different places.

Assays:
Assay type in all cases: in vivo
Erysiphe cichoracearum = test: Powdery Mildew of Cucumber fungicidal activity (ERYSCI); conditions: Golovinomyces cichoracearum, 24 h, 1 Day Protectant, read-out: Disease Control ERYSCI 1DP
Method: Technical grades of materials were dissolved in acetone, which were then mixed with nine volumes of water containing 110 ppm Triton X-100. The fungicide solutions were applied onto wheat seedlings using an automated booth sprayer to run-off. All sprayed plants were allowed to air dry prior to further handling. All fungicides were evaluated using the aforementioned method for their activity vs. all target diseases. Wheat leaf blotch and brown rust activity were also evaluated using track spray applications, in which case the fungicides were formulated as EC formulations, containing 0.1% Trycol 5941 in the spray solutions. Wheat plants (variety Yuma) were grown from seed in a greenhouse in 50% mineral soil/50% soil-less Metro mix until the first leaf was fully emerged, with 7-10 seedlings per pot. These plants were inoculated with an aqueous spore suspension of Septoria tritici either prior to or after fungicide treatments. After inoculation the plants were kept in 100% relative humidity (one day in a dark dew chamber followed by two to three days in a lighted dew chamber at 20° C.) to permit spores to germinate and infect the leaf. The plants were then transferred to a greenhouse set at 20° C. for disease to develop. When disease symptoms were fully expressed on the 1st leaves of untreated plants, infection levels were assessed on a scale of 0 to 100 percent disease severity. Percent disease control was calculated using the ratio of disease severity on treated plants relative to untreated plants. Evaluation of Fungicidal Activity: Powdery Mildew of Cucumber (Erysiphe cichoracearum; Bayer Code […]) Cucumber seedlings (variety Bush Pickle) were grown in soil-less Metro mix, with one plant per pot, and used in the test when 12 to 14 days old. Plants were inoculated with a spore suspension 24 hr following fungicide treatments. After inoculation the plants remained in the greenhouse set at 20° C. until disease was fully expressed. Fungicide formulation, application and disease assessment on the sprayed leaves followed the procedures as described in the Example A.

Alternaria solani = test: Tomato Early Blight fungicidal activity (ALTESO); conditions: 24 h, 1 Day Protectant, read-out: Disease Control ALTESO 1DP
Method: Technical grades of materials were dissolved in acetone, which were then mixed with nine volumes of water containing 110 ppm Triton X-100. The fungicide solutions were applied onto wheat seedlings using an automated booth sprayer to run-off. All sprayed plants were allowed to air dry prior to further handling. All fungicides were evaluated using the aforementioned method for their activity vs. all target diseases. Wheat leaf blotch and brown rust activity were also evaluated using track spray applications, in which case the fungicides were formulated as EC formulations, containing 0.1% Trycol 5941 in the spray solutions. Wheat plants (variety Yuma) were grown from seed in a greenhouse in 50% mineral soil/50% soil-less Metro mix until the first leaf was fully emerged, with 7-10 seedlings per pot. These plants were inoculated with an aqueous spore suspension of Septoria tritici either prior to or after fungicide treatments. After inoculation the plants were kept in 100% relative humidity (one day in a dark dew chamber followed by two to three days in a lighted dew chamber at 20° C.) to permit spores to germinate and infect the leaf. The plants were then transferred to a greenhouse set at 20° C. for disease to develop. When disease symptoms were fully expressed on the 1st leaves of untreated plants, infection levels were assessed on a scale of 0 to 100 percent disease severity. Percent disease control was calculated using the ratio of disease severity on treated plants relative to untreated plants. Evaluation of Fungicidal Activity: Tomato Early Blight (Alternaria solani; Bayer Code […]) Tomato plants (variety Outdoor girl) were propagated in soil-less Metro mix, with each pot having one plant, and used when 12 to 14 days old. Test plants were inoculated with an aqueous spore suspension of Alternaria solani 24 hr after fungicide treatments. After inoculation the plants were kept in 100% relative humidity (one day in a dark dew chamber followed by two to three days in a lighted dew chamber at 20° C.) to permit spores to germinate and infect the leaf. The plants were then transferred to a growth room at 22° C. for disease to develop. Fungicide formulation, application and disease assessment on the sprayed leaves followed the procedures as described in the Example A.

[1] = system: Mycosphaerella graminicola; Anamorph: Septoria tritici; test: Leaf Blotch of Wheat fungicidal activity (SEPTTR); conditions: Zymoseptoria tritici; for pest or weed control at 100 ppm: rate 100 ppm; for pest or weed control at 121.5 g/ha: rate 121.5 g/H
Outline: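 Acetone solutions diluted with nine volumes of water containing 110 ppm Triton X-100, sprayed to run-off on first-leaf wheat seedlings (Yuma), inoculated with S. tritici before or after treatment. Plants held in dew chambers, then in a 20 °C greenhouse. Disease severity (0–100%) scored when untreated plants fully symptomatic; % control relative to untreated.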

[2] = 24 h, 1 Day Protectant, read-out: Disease control SEPTTR 1DP
[3] = 72 h, 3 Day Curative, read-out: Disease control SEPTTR 3DC

Row | SMILES | pest or weed control at 100 ppm (Erysiphe cichoracearum) | pest or weed control at 100 ppm (Alternaria solani) | pest or weed control at 100 ppm [1, 2] | pest or weed control at 121.5 g/ha [1, 2] | pest or weed control at 100 ppm [1, 3] | pest or weed control at 121.5 g/ha [1, 3]
1 | COc1ccnc(C(=O)N[C@H]2COC[C@H](CC(F)(F)F)[C@@H](OC3CCCC3)[C@H](C)OC2=O)c1OCOC(C)=O [Compound F105] | 0 to 80% | 0 to 80% | 80 to 100% | 80 to 100% | 80 to 100% | 80 to 100%
2 | COc1ccnc(C(=O)N[C@H]2COC[C@H](CC3CCCC3)[C@@H](OC(=O)C(C)C)[C@H](C)OC2=O)c1OCOC(C)=O [Compound F114] | 80 to 100% | 80 to 100% | 80 to 100% | 80 to 100% | 80 to 100% | 80 to 100%
3 | COc1ccnc(C(=O)N[C@H]2COC[C@H](Cc3ccc(C)cc3)[C@@H](OCC(C)C)[C@H](C)OC2=O)c1OCOC(C)=O [Compound F117] | 80 to 100% | 80 to 100% | 80 to 100% | 80 to 100% | 80 to 100% | 80 to 100%
4 | CCCCCO[C@@H]1[C@@H](Cc2ccc(Cl)cc2Cl)COC[C@H](NC(=O)c2nccc(OC)c2OC(=O)CCOC)C(=O)O[C@H]1C [Compound F123] | 80 to 100% | 80 to 100% |  | 80 to 100% |  | 
5 | COc1ccnc(C(=O)N[C@H]2COC[C@H](Cc3ccc(F)cc3)[C@@H](OCC(C)C)[C@H](C)OC2=O)c1OCOC(C)=O [Compound F96] | 80 to 100% | 80 to 100% | 80 to 100% | 80 to 100% | 80 to 100% | 80 to 100%
6 | COc1ccnc(C(=O)N[C@H]2COC[C@H](Cc3ccc(C)cc3)[C@@H](OCC(C)C)[C@H](C)OC2=O)c1OC(C)=O [Compound F80] | 80 to 100% | 80 to 100% | 80 to 100% | 80 to 100% | 80 to 100% | 80 to 100%
7 | COc1ccnc(C(=O)N[C@H]2COC[C@H](CCc3ccccc3)[C@@H](OCC(C)C)[C@H](C)OC2=O)c1OCOC(C)=O [Compound F82] | 0 to 80% | 0 to 80% | 80 to 100% | 80 to 100% | 80 to 100% | 80 to 100%
8 | COc1ccnc(C(=O)N[C@H]2COC[C@H](Cc3ccc(F)cc3)[C@@H](OCC(C)C)[C@H](C)OC2=O)c1OC(C)=O [Compound F60] | 80 to 100% |  | 80 to 100% | 80 to 100% | 80 to 100% | 80 to 100%
9 | COc1ccnc(C(=O)N[C@H]2COC[C@H](Cc3cccc4ccccc34)[C@@H](OC(=O)C(C)C)[C@H](C)OC2=O)c1OCOC(C)=O [Compound F83, (3S,6S,7R,8S)-3-(3-(acetoxymethoxy)-4-methoxypicolin-amido)-6-methyl-8-(naphthalen-1-ylmethyl)-4-oxo-1,5-dioxonan-7-yl isobutyrate] |  |  | 80 to 100% | 0 to 80% | 80 to 100% | 80 to 100%
10 | CCCCCO[C@@H]1[C@@H](Cc2ccc(Cl)cc2Cl)COC[C@H](NC(=O)c2nccc(OC)c2OCOC(=O)COCC)C(=O)O[C@H]1C [Compound F122] | 0 to 80% | 80 to 100% |  | 80 to 100% |  | 
11 | COc1ccnc(C(=O)N[C@H]2COC[C@H](CCC(C)C)[C@@H](OCCCC(F)(F)F)[C@H](C)OC2=O)c1OCOC(C)=O [Compound F107] | 80 to 100% | 80 to 100% | 80 to 100% | 80 to 100% | 80 to 100% | 80 to 100%
12 | COc1ccnc(C(=O)N[C@H]2COC[C@H](Cc3ccc(Cl)cc3Cl)[C@@H](OC(=O)C(C)C)[C@H](C)OC2=O)c1OC(C)=O [Compound F73] | 0 to 80% | 0 to 80% | 80 to 100% | 80 to 100% | 80 to 100% | 80 to 100%
13 | COc1ccnc(C(=O)N[C@H]2COC[C@H](Cc3ccc(Cl)cc3Cl)[C@@H](OC(=O)C(C)C)[C@H](C)OC2=O)c1OCOC(C)=O [Compound F110] | 0 to 80% | 80 to 100% | 80 to 100% | 80 to 100% | 80 to 100% | 80 to 100%
14 | COc1ccnc(C(=O)N[C@H]2COC[C@H](CCC(C)C)[C@@H](OC(=O)C3CC3)[C@H](C)OC2=O)c1OCOC(C)=O [Compound F108] | 80 to 100% | 80 to 100% | 80 to 100% | 80 to 100% | 80 to 100% | 80 to 100%
